The target of assay [1] is Apoptotic protease-activating factor 1 (Homo sapiens, UniProt O14727). Type of assay: functional.
Assay [2] deals with T1, Mannose-6-phosphate isomerase (Homo sapiens, UniProt P34949).
T1 sequence (P34949 whole entry): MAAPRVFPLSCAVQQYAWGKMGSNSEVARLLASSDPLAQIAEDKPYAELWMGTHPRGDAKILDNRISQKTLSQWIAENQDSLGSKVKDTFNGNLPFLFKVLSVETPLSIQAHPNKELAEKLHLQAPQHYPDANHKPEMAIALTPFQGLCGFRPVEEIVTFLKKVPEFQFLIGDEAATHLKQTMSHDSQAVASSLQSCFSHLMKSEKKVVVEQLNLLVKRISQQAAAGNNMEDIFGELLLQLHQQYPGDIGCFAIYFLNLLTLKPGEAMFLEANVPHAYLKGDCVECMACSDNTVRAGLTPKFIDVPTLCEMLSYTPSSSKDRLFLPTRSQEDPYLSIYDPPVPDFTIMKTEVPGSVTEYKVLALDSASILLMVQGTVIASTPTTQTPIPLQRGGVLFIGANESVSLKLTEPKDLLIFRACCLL
As to the kind of experiment: human PMI inhibitors, high substrate, primary screen, biochemical, fluorescence intensity, high mannose 6-phosphate (AID 1220).

The target in assay [3] is Cytochrome P450 2C9 (Homo sapiens, UniProt P11712).
The target in assay [4] is Cytochrome P450 2D6 (Homo sapiens, UniProt P10635).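 Note: CYP2D6 member of a cytochrome P450 panel assay.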
The target of assay [5] is T2, Caspase-3 (Homo sapiens, UniProt P42574).
T2 sequence (P42574 whole entry): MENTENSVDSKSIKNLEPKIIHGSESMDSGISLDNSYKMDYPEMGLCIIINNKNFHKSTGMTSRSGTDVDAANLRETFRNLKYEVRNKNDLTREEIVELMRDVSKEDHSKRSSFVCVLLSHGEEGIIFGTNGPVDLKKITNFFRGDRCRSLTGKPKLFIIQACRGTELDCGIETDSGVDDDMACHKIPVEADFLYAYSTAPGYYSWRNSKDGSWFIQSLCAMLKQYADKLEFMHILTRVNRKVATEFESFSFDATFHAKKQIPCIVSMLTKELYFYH
Description: SAR Analysis of small molecule inhibitors of Sentrin-specific proteases (SENPs) using a Caspase-3 Selectivity assay. [Related pubchem assays (depositor defined):AID2540, AID2599, AID434973, AID489001]. It counts as functional.

The target of assay [6] is T3, Sentrin-specific protease 7 (Homo sapiens, UniProt Q9BQF6).
T3 sequence (Q9BQF6 whole entry): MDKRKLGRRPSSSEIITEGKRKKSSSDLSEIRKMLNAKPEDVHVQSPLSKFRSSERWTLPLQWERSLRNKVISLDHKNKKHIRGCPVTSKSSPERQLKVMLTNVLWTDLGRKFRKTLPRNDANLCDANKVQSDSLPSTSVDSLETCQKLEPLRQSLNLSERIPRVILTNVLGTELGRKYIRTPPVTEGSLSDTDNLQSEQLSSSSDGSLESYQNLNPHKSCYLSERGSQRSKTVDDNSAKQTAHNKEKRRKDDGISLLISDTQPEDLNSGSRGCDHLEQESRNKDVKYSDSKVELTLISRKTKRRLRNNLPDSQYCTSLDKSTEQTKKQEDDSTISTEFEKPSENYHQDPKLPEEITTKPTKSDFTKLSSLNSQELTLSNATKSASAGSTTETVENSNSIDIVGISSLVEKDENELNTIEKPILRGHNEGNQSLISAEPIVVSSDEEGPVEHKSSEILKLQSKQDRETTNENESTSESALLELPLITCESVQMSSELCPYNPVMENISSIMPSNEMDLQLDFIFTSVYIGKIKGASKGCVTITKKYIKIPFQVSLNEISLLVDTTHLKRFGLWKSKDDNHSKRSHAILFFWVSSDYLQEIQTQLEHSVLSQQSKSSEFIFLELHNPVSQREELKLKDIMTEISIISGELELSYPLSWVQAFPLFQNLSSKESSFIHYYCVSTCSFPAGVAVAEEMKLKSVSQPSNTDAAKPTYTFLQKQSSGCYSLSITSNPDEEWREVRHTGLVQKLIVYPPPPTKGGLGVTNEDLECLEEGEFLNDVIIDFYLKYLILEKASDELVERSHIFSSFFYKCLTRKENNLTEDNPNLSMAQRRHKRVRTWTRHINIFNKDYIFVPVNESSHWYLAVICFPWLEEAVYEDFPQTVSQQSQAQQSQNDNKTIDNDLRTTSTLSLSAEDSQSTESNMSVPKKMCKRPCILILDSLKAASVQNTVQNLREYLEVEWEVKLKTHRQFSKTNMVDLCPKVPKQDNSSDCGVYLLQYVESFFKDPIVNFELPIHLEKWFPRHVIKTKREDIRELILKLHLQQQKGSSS
Description: SENP7 protease inhibitors, SAR follow-up, biochemical, luminescence (AID 504497). It counts as functional.

The target of assay [7] is T4, Sentrin-specific protease 6 (Homo sapiens, UniProt Q9GZR1).
T4 sequence (Q9GZR1 whole entry): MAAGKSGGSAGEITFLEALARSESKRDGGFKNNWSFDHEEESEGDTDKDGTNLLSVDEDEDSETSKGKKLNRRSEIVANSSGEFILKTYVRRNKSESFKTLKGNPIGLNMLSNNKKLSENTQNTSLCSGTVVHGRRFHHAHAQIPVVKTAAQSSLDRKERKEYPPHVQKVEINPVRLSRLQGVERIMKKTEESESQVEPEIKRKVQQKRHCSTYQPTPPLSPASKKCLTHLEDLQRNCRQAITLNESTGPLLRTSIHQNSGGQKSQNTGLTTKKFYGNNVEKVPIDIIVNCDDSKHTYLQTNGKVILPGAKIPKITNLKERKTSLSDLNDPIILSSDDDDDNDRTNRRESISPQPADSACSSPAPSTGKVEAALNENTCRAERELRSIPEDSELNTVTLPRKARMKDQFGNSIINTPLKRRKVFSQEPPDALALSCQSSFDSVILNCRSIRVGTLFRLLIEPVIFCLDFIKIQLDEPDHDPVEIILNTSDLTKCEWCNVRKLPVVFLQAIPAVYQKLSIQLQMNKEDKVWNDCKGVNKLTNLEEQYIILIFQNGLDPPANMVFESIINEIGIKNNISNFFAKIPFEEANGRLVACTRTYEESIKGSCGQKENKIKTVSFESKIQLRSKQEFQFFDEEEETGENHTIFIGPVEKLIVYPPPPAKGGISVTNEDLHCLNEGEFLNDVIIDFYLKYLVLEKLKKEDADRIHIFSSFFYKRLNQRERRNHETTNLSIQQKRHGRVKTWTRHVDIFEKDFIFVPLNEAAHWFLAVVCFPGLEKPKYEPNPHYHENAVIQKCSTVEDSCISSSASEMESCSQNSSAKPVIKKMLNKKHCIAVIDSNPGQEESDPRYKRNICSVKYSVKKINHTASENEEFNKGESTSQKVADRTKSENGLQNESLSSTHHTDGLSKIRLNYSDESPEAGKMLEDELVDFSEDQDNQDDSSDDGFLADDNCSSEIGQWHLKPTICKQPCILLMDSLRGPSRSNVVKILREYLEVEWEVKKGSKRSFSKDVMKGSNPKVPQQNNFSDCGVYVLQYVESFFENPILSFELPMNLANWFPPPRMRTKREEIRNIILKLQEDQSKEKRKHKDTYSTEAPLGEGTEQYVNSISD
Description: SAR Analysis of small molecule inhibitors of Sentrin-specific protease 6 (SENP6) using a Luminescent assay. [Related pubchem assays (depositor defined):AID2582, AID2599]. It counts as functional.

Assay [8] deals with T5, Sentrin-specific protease 8 (Homo sapiens, UniProt Q96LD8).
T5 sequence (Q96LD8 whole entry): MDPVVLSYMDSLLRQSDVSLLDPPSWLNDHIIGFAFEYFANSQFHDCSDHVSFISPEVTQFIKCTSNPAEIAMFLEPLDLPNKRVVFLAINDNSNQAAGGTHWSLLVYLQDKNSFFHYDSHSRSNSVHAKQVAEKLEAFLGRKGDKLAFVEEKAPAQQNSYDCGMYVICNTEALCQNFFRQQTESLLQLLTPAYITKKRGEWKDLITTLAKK
Description: SENP8 protease inhibitors, SAR follow-up, biochemical, luminescence (AID 504501). Type of assay: functional.

For assay [9], the target named is T4, Sentrin-specific protease 6. It counts as functional.
Assay [10] has as its target T5, Sentrin-specific protease 8. Type of assay: functional.
The target in assay [11] is T2, Caspase-3. Type of assay: functional.
For assay [12], the target named is T3, Sentrin-specific protease 7. Type of assay: functional.
Assay [13] concerns Vero. As to the kind of experiment: Vero cell cytotoxicity, cytotoxicity control for flavivirus capping enzyme inhibitors (AID 588742). Type of assay: functional. The following applies: Chlorocebus sabaeus.
The nature of assay [14]: Luminescence Cell-Based Dose Response HTS to Identify Activators of Luciferase Translation or Activity in H4 […] Cells. [Related pubchem assays: 1829 (Project Summary), 1814 (Primary HTS)]. Type of assay: functional.
Assay [15] deals with FAD-linked sulfhydryl oxidase ALR (Homo sapiens, UniProt P55789). As to the kind of experiment: inhibitors of human ALR sulfhydryl oxidase, dose response, biochemical, H2O2 detection, luminescence, cherry-pick (AID 493248).
The test system of assay [16] is H4. Description: Luminescence Cell-Based Dose Response HTS to Identify Activators of 5'UTR Stem-Loop Driven Prion Protein mRNA Translation in H4 Neuroglioblastoma Cells. [Related pubchem assays: 1829 (Project Summary), 1814 (Primary HTS)]. It counts as functional. As to conditions: Homo sapiens.
Assay [17] can be described thus: Luminescence Cell-Based Dose Confirmation HTS to Identify Activators of 5'UTR Stem-Loop Driven Alpha-Synuclein mRNA Translation in H4 Neuroglioblastoma Cells. [Related pubchem assays: 1829 (Project Summary), 1814 (Primary HTS)]. Type of assay: functional.
The target in assay [18] is T6, Aurora kinase A (Homo sapiens, UniProt O14965).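 Note: value from the Navigating the Kinome kinase panel profiling, panel entry STK6.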
T6 sequence (O14965 whole entry): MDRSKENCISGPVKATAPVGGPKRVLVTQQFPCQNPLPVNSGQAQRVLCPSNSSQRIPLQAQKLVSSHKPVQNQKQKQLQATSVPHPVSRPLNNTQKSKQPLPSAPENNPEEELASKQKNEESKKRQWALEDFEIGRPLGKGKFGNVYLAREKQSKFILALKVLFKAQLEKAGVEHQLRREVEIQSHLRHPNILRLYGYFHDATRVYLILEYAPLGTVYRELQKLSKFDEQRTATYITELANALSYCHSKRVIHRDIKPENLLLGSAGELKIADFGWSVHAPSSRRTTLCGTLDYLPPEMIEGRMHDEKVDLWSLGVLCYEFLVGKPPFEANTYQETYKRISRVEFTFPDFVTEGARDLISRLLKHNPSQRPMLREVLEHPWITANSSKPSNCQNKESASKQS
Type of assay: functional.

The target of assay [19] is Cyclin-dependent kinase 19 (Homo sapiens, UniProt Q9BWU1). As to the kind of experiment: Navigating the Kinome. Panel member name: CDC2L6. Type of assay: functional.
Assay [20] deals with Vascular endothelial growth factor receptor 2 (Homo sapiens, UniProt P35968). Type of assay: functional.
The target of assay [21] is Aurora kinase B (Homo sapiens, UniProt Q96GD4). It counts as functional.

The source made the active and inactive calls.

The results in this text go back to ChEMBL document CHEMBL1201862, “PubChem BioAssay data set” (2004).

As a reminder, the IC50 is the point on the concentration scale where inhibition reaches its midpoint. As a reminder, the AC50 is the concentration at which the activity in the assay is half-maximal. A word on the CC50: it is the concentration at which the toxic effect on the cells reaches its halfway point. As usually defined, the EC50 is the concentration that produces a half-maximal response. For orientation: Ki means the equilibrium dissociation constant of an inhibitor or competing ligand from its target.

Vascular endothelial growth factor receptor 2, sequence (P35968 whole entry): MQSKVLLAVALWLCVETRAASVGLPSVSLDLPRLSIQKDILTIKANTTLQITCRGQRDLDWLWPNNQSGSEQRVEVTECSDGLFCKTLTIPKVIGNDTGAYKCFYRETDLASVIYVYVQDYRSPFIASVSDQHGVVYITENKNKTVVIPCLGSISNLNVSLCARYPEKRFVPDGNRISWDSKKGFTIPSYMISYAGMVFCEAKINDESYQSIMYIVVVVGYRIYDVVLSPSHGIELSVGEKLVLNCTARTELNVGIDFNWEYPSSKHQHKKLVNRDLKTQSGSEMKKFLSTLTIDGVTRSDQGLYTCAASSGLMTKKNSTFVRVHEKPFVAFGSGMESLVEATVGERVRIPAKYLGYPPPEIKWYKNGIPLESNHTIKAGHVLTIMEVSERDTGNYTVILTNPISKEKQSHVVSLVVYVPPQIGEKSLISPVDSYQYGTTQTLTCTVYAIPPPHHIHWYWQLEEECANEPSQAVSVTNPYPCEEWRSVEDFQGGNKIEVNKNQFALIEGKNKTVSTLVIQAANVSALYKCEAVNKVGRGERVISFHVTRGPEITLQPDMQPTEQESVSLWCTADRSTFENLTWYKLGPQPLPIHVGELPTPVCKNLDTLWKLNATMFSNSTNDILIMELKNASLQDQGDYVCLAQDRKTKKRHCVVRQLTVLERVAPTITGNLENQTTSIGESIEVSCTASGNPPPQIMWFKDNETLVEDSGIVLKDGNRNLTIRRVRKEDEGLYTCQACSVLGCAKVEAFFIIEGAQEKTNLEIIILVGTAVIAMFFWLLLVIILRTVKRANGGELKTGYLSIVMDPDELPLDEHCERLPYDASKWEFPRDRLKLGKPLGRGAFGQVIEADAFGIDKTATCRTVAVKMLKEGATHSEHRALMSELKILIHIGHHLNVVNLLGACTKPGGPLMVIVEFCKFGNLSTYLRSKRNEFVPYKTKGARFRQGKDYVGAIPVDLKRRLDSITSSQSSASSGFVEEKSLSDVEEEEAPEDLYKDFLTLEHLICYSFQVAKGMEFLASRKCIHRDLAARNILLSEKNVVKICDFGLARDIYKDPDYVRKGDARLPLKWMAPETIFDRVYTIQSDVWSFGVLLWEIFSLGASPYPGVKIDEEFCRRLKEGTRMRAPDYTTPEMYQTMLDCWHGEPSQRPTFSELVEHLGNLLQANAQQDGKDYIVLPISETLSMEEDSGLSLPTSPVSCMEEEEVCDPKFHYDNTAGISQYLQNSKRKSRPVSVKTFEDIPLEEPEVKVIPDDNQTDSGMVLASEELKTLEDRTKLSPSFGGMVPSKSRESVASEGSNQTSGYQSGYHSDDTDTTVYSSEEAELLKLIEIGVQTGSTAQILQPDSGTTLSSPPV
Aurora kinase B, sequence (Q96GD4 whole entry): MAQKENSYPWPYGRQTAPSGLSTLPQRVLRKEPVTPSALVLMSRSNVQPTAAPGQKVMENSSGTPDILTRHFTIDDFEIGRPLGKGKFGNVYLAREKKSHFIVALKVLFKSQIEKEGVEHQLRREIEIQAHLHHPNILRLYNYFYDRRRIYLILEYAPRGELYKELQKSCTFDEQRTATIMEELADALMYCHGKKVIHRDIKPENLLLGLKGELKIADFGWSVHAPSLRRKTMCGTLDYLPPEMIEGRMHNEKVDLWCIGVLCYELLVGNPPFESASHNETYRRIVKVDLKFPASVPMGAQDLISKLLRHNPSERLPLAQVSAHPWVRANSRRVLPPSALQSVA
Apoptotic protease-activating factor 1, sequence (O14727 whole entry): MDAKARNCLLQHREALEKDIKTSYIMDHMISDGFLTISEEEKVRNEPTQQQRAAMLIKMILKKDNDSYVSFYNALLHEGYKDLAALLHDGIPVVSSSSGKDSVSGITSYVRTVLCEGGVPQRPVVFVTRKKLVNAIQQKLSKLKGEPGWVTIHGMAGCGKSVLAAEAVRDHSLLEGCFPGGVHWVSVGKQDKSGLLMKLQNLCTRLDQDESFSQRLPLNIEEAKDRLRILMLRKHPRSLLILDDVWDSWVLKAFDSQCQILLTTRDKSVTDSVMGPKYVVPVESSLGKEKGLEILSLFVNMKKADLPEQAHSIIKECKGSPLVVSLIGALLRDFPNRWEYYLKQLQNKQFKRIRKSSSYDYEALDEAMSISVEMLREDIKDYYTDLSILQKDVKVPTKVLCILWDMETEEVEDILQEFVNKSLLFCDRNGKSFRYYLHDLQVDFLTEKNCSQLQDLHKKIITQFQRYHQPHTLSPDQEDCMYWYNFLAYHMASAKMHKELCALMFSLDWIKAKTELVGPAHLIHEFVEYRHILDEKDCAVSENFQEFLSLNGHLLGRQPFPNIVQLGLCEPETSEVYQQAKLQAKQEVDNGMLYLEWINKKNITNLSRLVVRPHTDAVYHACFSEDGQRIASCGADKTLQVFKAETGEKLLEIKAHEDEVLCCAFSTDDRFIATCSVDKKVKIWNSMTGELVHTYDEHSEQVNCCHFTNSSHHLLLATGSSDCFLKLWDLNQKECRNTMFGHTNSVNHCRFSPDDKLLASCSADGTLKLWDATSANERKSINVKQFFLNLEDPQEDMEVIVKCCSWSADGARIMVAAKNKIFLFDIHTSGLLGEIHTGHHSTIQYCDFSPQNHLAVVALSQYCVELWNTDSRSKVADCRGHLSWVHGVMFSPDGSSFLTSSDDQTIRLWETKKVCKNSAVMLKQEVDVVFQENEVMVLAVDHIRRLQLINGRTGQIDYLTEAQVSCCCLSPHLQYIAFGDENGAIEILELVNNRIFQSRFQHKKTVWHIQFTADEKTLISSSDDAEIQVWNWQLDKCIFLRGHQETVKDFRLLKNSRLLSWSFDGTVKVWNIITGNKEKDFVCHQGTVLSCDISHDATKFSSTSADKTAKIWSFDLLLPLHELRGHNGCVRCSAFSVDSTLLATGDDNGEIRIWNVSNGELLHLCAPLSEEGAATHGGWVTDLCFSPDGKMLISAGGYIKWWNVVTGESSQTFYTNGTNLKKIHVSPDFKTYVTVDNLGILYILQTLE
Cytochrome P450 2D6, sequence (P10635 whole entry): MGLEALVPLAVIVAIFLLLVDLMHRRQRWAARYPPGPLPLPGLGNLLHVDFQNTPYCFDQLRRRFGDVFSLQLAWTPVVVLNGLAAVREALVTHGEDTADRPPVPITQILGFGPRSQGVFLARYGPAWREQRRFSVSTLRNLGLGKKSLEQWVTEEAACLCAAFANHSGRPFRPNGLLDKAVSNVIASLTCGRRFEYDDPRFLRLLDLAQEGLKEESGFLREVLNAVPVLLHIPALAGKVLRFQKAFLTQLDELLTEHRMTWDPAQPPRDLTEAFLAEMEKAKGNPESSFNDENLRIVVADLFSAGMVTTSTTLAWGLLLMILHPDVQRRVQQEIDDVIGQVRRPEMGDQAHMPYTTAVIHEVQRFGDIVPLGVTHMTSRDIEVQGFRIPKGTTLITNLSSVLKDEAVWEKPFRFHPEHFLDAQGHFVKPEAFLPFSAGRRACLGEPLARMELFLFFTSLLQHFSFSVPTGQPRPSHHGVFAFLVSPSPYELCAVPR
FAD-linked sulfhydryl oxidase ALR, sequence (P55789 whole entry): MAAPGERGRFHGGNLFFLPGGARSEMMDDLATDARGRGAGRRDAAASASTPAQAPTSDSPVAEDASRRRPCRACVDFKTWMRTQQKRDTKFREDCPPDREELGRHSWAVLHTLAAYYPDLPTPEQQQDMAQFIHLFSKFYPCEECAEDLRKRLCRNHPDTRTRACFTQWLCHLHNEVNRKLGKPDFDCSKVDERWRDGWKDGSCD
Cytochrome P450 2C9, sequence (P11712 whole entry): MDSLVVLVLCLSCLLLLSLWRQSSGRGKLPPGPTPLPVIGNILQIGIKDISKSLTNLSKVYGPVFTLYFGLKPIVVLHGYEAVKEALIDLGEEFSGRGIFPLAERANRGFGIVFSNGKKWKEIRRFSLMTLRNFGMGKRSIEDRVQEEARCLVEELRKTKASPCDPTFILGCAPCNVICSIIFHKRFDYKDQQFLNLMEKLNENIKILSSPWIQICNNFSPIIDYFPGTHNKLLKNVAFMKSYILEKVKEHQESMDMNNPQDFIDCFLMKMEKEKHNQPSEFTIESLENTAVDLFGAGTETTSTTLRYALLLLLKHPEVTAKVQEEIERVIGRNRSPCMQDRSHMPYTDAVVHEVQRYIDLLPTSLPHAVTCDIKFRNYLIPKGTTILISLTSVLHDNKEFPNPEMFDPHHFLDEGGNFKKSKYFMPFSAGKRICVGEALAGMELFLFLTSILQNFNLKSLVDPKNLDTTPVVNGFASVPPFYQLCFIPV
Cyclin-dependent kinase 19, sequence (Q9BWU1 whole entry): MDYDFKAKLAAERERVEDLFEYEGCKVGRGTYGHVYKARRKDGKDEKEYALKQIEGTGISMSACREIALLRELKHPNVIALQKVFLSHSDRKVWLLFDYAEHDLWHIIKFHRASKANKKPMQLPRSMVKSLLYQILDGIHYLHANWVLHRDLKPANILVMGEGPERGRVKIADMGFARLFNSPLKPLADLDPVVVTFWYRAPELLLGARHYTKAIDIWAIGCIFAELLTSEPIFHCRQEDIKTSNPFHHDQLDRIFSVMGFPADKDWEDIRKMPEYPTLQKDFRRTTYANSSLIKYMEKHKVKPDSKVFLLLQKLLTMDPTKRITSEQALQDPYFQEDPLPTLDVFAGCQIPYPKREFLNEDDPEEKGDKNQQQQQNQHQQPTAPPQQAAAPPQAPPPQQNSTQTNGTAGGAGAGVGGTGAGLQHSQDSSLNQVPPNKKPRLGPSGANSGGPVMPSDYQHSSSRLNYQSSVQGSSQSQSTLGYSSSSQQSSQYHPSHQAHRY

Consider `O=C1OC(Nc2ccc3ncccc3c2)c2ccccc21` (centres undefined), for which the IC50 in [1] was 32.9 µM (active); in [2], > 50 µM (not active).

For `Cc1ccc(-c2nn3c(C)nnc3c3ccccc23)cc1S(=O)(=O)NCc1ccccc1`, the AC50 is 1.26 µM (inconclusive) in assay [3] and 15.8 µM (inconclusive) in assay [4]. In addition, the IC50 in [1] was 9.2 µM (active).

On to `O=C(/C=C/c1ccc(OC2CSC2)cc1)c1ccccc1`, for which the IC50 in assay [5] was 23.3 µM (active); in assay [6], 5.23 µM (active); in assay [7] it was 7.59 µM (active); in assay [8], 8.36 µM (active).

`Cc1ccc(NC(=O)CCc2c(C)nn(-c3ccc(N4CCCCC4)nn3)c2C)cc1F`: the IC50 in assay [9] was 24.4 µM (active); in assay [10] it was 29.4 µM (active); in [11], 21.6 µM (active); in assay [12], 7.86 µM (active).

In the case of `O=C1c2sc3nc4n(c(=O)c3c2CCC1Br)CCCCC4` (centres undefined), the CC50 in [13] was 24.2 µM (active). Also, the EC50 in assay [14] was 8.79 µM (active); in [16], 7.07 µM (active); in [17], 5.38 µM (active). Also, the AC50 in assay [15] was 1.7 µM (active).

On to `Nc1ccc(-c2nc3cc([N+](=O)[O-])ccc3[nH]2)cc1`, for which the IC50 in assay [9] was 28.3 µM (active); in assay [10], 23.8 µM (active); in [11] it was 17.2 µM (active); in assay [12] it was 8.59 µM (active).

As for `CN(C)c1cc(NN=Cc2ccco2)nc(N(C)C)n1`, the IC50 is > 99 µM (inactive) in assay [5], 35 µM (active) in assay [6], 17.5 µM (active) in [7] and 75.6 µM (active) in [8].

Regarding `Cc1ccc(NC(=O)Nc2ccc(-c3c(C(C)C)sc4ncnc(N)c34)cc2)cc1`, the Ki is 0.0794 µM (active) in [18] and > 100 µM (inactive) in assay [19].

For `COc1cc(Nc2ncc(C(F)(F)F)c(N)n2)cc(OC)c1OC`, the Ki in assay [18] is 0.2 µM (active); in [20] it was 3.98 µM (active); in assay [21] it was 0.0398 µM (active).

As to `NC(=O)c1cccc2[nH]c(-c3ccc(N4CCN(Cc5ccccc5)CC4)nc3)nc12`, the Ki in assay [18] is 0.501 µM (active); in assay [20], 2 µM (active); in assay [21], 0.02 µM (active).
